Assay results taken from patent US6821289B2, “Efficacy and safety of photodynamic therapy by multiple application protocols with photosensitizers that show extended tumor retention” (CeramOptec Industries, Inc., priority 2003, dated 2004).

Legend:
tumor [1] = conditions: mice; cited from earlier work
rat pituitary tumor = conditions: cited from earlier work
[2] = system: chemically induced rat skin tumor; conditions: cited from earlier work
[3] = system: xenografted human pancreatic tumor; conditions: cited from earlier work
tumor [4] = experiment: PS concentration over time in tumor and normal tissue during repetitive administration of pheophorbide a (FIG. 1); type: in vivo
Experimental: FIG. 1 Graphic representation of PS concentration over time in tumor and normal tissue, for example the skin, during repetitive administration of pheophorbide a.
FIG. 1 illustrates preferred intervals between administration of doses of pheophorbide a in cancerous tissue. As is shown in the figure, upon a first administration the concentration of pheophorbide a is initially high and slowly decreases. The concentration in healthy tissue quickly decreases and levels off, where at 24 hours the concentration in healthy tissue is very low and has reached a point where the concentration decreases very slowly. After the first 24 hour interval, the concentration in the tumor is 17 times that in healthy cells. The same effect is observed after the second administration of pheophorbide a. As a result, after a total of four administrations and a total time of 96 hours, the concentration of pheophorbide a in healthy tissues remains very small, and the concentration in the tumor is greater by a factor of 68.

pancreas carcinoma = experiment: PDT of a pancreas carcinoma, four intravenous administrations (Example 1); type: in vivo; conditions: 100-200 J/cm^2 at approximately 100 mW/cm^2
Experimental: A formulation of the PS pheophorbide a is administered intravenously 4 times as described above, with doses ranging from approximately 2 to 20 mg of PS per kilogram of body weight, achieving an at least a 50:1 ratio of PS content in the carcinoma to the PS content in the surrounding healthy pancreatic tissue. Light guiding fibres are placed within the tumor under imaging guidance. The tumor is irradiated with an energy density sufficient to necrotize the diseased tissue, preferably 100-200 J/cm^2, at a power density of approximately 100 mW/cm^2.

pancreatic tumor = conditions: rats, cited from earlier work

Row | Compound | change in concentration in plasma, single versus double injections (tumor [1]) | relative concentration in skin and tumor tissue, single versus double injections (tumor [1]) | time at which content of normal pituitary gland reached a basal value (rat pituitary tumor; rat normal pituitary gland) | change of pheophorbide a content of tumor (rat pituitary tumor; rat pituitary tumor, during 6 hours after administration) | time for which pheophorbide a content remained high in tumor ([2]; chemically induced rat skin tumor, after administration) | time at which pheophorbide a content of normal skin reached a basal value ([2]; rat normal skin, after administration) | basal normal skin content as fraction of tumor pheophorbide a content ([2]; rat, 24 hours after administration) | time at which PS content of normal skin reached a low basal value ([3]; nude mice normal skin) | change of pheophorbide a content of tumor ([3]; xenografted human pancreatic tumor in nude mice, between 4 and 48 hours after administration) | concentration in tumor relative to healthy tissues (tumor [4]; after four administrations, total time 96 hours) | concentration in tumor relative to healthy cells (tumor [4]; after the first 24 hour interval, one administration) | effect on surrounding tissue upon irradiation (pancreas carcinoma) | time at which pheophorbide a content of normal pancreas reached a low constant value (pancreatic tumor; normal pancreas) | time for which content of pancreatic tumor remained elevated (pancreatic tumor; pancreatic tumor)
1 | Oc1cccc(-c2c3nc(c(-c4cccc(O)c4)c4ccc([nH]4)c(-c4cccc(O)c4)c4nc(c(-c5cccc(O)c5)c5ccc2[nH]5)CC4)C=C3)c1 [Foscan, meta-tetrahydroxyphenylchlorin] | not significantly different | nor was the relative concentration in skin and tumor tissue significantly different | – | – | – | – | – | – | – | – | – | – | – | –
2 | pheophorbide a | – | – | 4 h | decreased slowly | up to 48 hours | ≤ 24 h | one tenth | 24 h | did not decrease | 68 factor | 17 times | remains intact | 24 h | at least 48 hours
